Source: patent publication US8835458B2 (Hanmi Science Co., Ltd, priority 2010, dated 2014)
Like-named read-outs stand apart in the source and are kept apart here.

What was measured:
[1] = Toxicity to normal cells (SRB); type: cell-based, human; settings: human, Hs27 fibroblasts (normal cell line)
Summary of the method: (§1)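 GI50 values come from growth equations comparing treated, untreated and medium-only wells. Fibroblasts (Hs27, Balb/c3t3) got 72 h compound exposure with SRB read-out at 540 nm after TCA fixing. MDA-MB-231 got 120 h with MTS at 490 nm, across 10 μM˜0.1 nM.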

[2] = tested on: MDA-MB-231 breast cancer cell lines; test: Evaluation of inhibition on cell growth (MTS); type: cell-based
Summary of the method: as §1

[3] = tested on: caspase 3/7; test: Evaluation of caspase activity (Caspase-Glo 3/7 Assay Kit); type: cell-based; settings: MDA-MB-231 cells, 12 hours, compared to untreated MDA-MB-231 cells; 0.5, 1, 5 μM tested
Protocol: (§2) MDA-MB-231 breast cancer cells (ATCC #HTB-26) were plated in 96-well plates at a density of 1.0 1.5×10^4 cells/well. […] Then, media were removed and the cells were washed two times with PBS at 4° C. The cells were treated with a solution of the analysis samples and media (1:1) in an amount of 140 μL/well using Caspase-GloTM 9 Assay Kit (Cat#. […]; Promega, USA) and Caspase-GloTM 3/7 Assay Kit (Cat#. […]; Promega, USA). After the cells were incubated at 37° C. for 2 hours, luminescence was measured using InfiniteTM M1000 multi reader (Tecan). […] The values were represented as “***” for six fold or more, “**” for 4 fold to below 6 fold, and “*” for 1 fold to below 4 fold, as compared to that of untreated, normal MDA-MB-231 breast cancer cell lines.

[4] = tested on: caspase 9; test: Evaluation of caspase activity (Caspase-Glo 9 Assay Kit); type: cell-based; settings: MDA-MB-231 cells, 16 hours, compared to untreated MDA-MB-231 cells; 0.5, 1, 5 μM tested
Protocol: as §2

[5] = Toxicity to normal cells (SRB); type: cell-based, mouse; settings: mouse, Balb/c3t3 fibroblasts (normal cell line), read-out: BalB/C (GI50)
Summary of the method: as §1

[6] = tested on: Hs27 fibroblasts; test: Toxicity to normal cells (SRB); type: cell-based, human; settings: normal cell line, 72 hours
Summary of the method: as §1

[7] = tested on: Balb/c3t3 fibroblasts; test: Toxicity to normal cells (SRB); type: cell-based, mouse; settings: normal cell line, 72 hours, read-out: BalB/C (GI50)
Summary of the method: as §1

[8] = Homo sapiens, MDA-MB-231, 120 hours

Compound | GI50 [2, 8] | GI50 at 72 h [1] | Caspase-3 [3] | Caspase-9 [4] | GI50 at 72 h [5] | GI50 [6] | GI50 ([2]; 120 hours) | GI50 [7]
CN[C@@H](C)C(=O)N[C@H](C(=O)N1CCC[C@H]1C(=O)Nc1cc2c(Nc3cccc(Cl)c3F)ncnc2cc1OCCOC)C(C)(C)C.Cl [Example 2, (S)—N-(4-(3-chloro-2-fluorophenylamino)-7-(2-methoxyethoxy)quinazolin-6-yl)-1-((S)-3,3-dimethyl-2-((S)-2-(methylamino)propanamido)butanoyl)pyrrolidine-2-carboxamide hydrochloride] | 0.1 to 1 µM | > 10 µM | ** (4 fold to below 6 fold) | * (1 fold to below 4 fold) | > 10 µM |  |  | 
CN[C@@H](C)C(=O)N[C@H](C(=O)N1CCC[C@H]1C(=O)Nc1cc2c(Nc3cccc(Cl)c3F)ncnc2cc1OC)C(C)(C)C.Cl [Example 7] |  |  | *** (six fold or more) | *** (six fold or more) |  |  |  | 
CN[C@@H](C)C(=O)N[C@H](C(=O)N1CCC[C@H]1C(=O)Nc1cc2c(Nc3ccc(Cl)c(Cl)c3F)ncnc2cc1OC)C(C)(C)C.Cl [Example 8, (S)—N-(4-(3,4-dichloro-2-fluorophenylamino)-7-methoxyquinazolin-6-yl)-1-((S)-3,3-dimethyl-2-((S)-2-(methylamino)propanamido)butanoyl)pyrrolidine-2-carboxamide hydrochloride] | ≤ 0.1 µM | > 10 µM | *** (six fold or more) | *** (six fold or more) | > 10 µM |  |  | 
CN[C@@H](C)C(=O)N[C@H](C(=O)N1CCC[C@H]1C(=O)Nc1cc2c(Nc3ccc(F)c(F)c3F)ncnc2cc1OC)C(C)(C)C.Cl [Example 17, (S)-1-((S)-3,3-dimethyl-2-((S)-2-(methylamino)propanamido)butanoyl)-N-(7-methoxy-4-(2,3,4-trifluorophenylamino)quinazolin-6-yl)pyrrolidine-2-carboxamide hydrochloride] | ≤ 0.1 µM | > 10 µM | *** (six fold or more) | *** (six fold or more) | > 10 µM |  |  | 
(S)—N—((S)-1-((S)-2-(4-((4-bromo-2-fluorophenylamino)-6-methoxyquinazolinyl-7-oxy)methyl)piperidine)-1-carbonyl)-1-pyrrolidinyl)-3,3-dimethyloxobutan-2-yl)-2-(methylamino)propanamide hydrochloride [Example 44] |  |  |  |  |  | > 10 µM | ≤ 0.1 µM | > 10 µM

More lines, main results first:

GI50 [2, 8] | Compound | GI50 at 72 h [1] | Caspase-3 [3] | Caspase-9 [4] | GI50 at 72 h [5] | GI50 [6] | GI50 ([2]; 120 hours) | GI50 [7]
≤ 0.1 µM | CN[C@@H](C)C(=O)N[C@H](C(=O)N1CCC[C@H]1C(=O)Nc1cc2c(Nc3ccc(F)c(Cl)c3F)ncnc2cc1OC)C(C)(C)C.Cl [Example 1, (S)—N-(4-(3-chloro-2,4-difluorophenylamino)-7-methoxyquinazolin-6-yl)-1-((S)-3,3-dimethyl-2-((S)-2-(methylamino)propanamido)butanoyl)pyrrolidine-2-carboxamide hydrochloride] | > 10 µM | *** (six fold or more) | *** (six fold or more) | > 10 µM |  |  | 
≤ 0.1 µM | CN[C@@H](C)C(=O)N[C@H](C(=O)N1CCC[C@H]1C(=O)Nc1cc2c(Nc3ccc(Br)cc3F)ncnc2cc1OC)C(C)(C)C.Cl [Example 9, (S)—N-(4-(4-bromo-2-fluorophenylamino)-7-methoxyquinazolin-6-yl)-1-((S)-3,3-dimethyl-2-((S)-2-(methylamino)propanamido)butanoyl)pyrrolidine-2-carboxamide hydrochloride] | > 10 µM | *** (six fold or more) | *** (six fold or more) | > 10 µM |  |  | 
≤ 0.1 µM | CN[C@@H](C)C(=O)N[C@H](C(=O)N1CCC[C@H]1C(=O)Nc1cc2c(Nc3ccccc3F)ncnc2cc1OC)C(C)(C)C.Cl [Example 10, (S)-1-((S)-3,3-dimethyl-2-((S)-2-(methylamino)propanamido)butanoyl)-N-(4-(2-fluorophenylamino)-7-methoxyquinazolin-6-yl)pyrrolidine-2-carboxamide hydrochloride] | > 10 µM | *** (six fold or more) | *** (six fold or more) | > 10 µM |  |  | 
≤ 0.1 µM | CN[C@@H](C)C(=O)N[C@H](C(=O)N1CCC[C@H]1C(=O)Nc1cc2c(Nc3ccccc3)ncnc2cc1OC)C(C)(C)C.Cl [Example 11, (S)—N-(4-phenylamino-7-methoxyquinazolin-6-yl)-1-((S)-3,3-dimethyl-2-((S)-2-(methylamino)propanamido)butanoyl)pyrrolidine-2-carboxamide hydrochloride] | > 10 µM | *** (six fold or more) | *** (six fold or more) | > 10 µM |  |  | 
≤ 0.1 µM | CN[C@@H](C)C(=O)N[C@H](C(=O)N1CCC[C@H]1C(=O)Nc1cc2c(Nc3ccc(F)c(Cl)c3F)ncnc2cc1OC)C1CCCCC1.Cl [Example 15, (S)—N-(4-(3-chloro-2,4-difluorophenylamino)-7-methoxyquinazolin-6-yl)-1-((S)-2-cyclohexyl-2-((S)-2-(methylamino)propanamido)acetyl)pyrrolidine-2-carboxamide hydrochloride] | > 10 µM | *** (six fold or more) | *** (six fold or more) | > 10 µM |  |  | 
≤ 0.1 µM | CN[C@@H](C)C(=O)N[C@H](C(=O)N1CCC[C@H]1C(=O)Nc1cc2c(NCc3ccccc3)ncnc2cc1OC)C(C)(C)C.Cl [Example 18, (S)—N-(4-benzylamino-7-methoxyquinazolin-6-yl)-1-((S)-3,3-dimethyl-2-((S)-2-(methylamino)propanamido)butanoyl)pyrrolidine-2-carboxamide hydrochloride] | > 10 µM | *** (six fold or more) | *** (six fold or more) | > 10 µM |  |  | 
≤ 0.1 µM | CN[C@@H](C)C(=O)N[C@H](C(=O)N1CCC[C@H]1C(=O)Nc1cc2c(Nc3ccc(Oc4ccc(C)nc4)c(Cl)c3)ncnc2cc1OC)C(C)(C)C.Cl [Example 19, (S)—N-(4-(3-chloro-4-(6-methylpyridin-3-yloxy)phenylamino)-7-methoxyquinazolin-6-yl)-1-((S)-3,3-dimethyl-2-((S)-2-(methylamino)propanamido)butanoyl)pyrrolidine-2-carboxamide hydrochloride] | > 10 µM | *** (six fold or more) | *** (six fold or more) | > 10 µM |  |  | 
